Results taken from PMC12406198, “Decadentate Acyclic Chelators for Lanthanum Radiopharmaceuticals” (Journal of Medicinal Chemistry, 2025).
Where two headings read alike, the source gives them in different places. Values belong to the molecule of their own block, whether it stands above or below them.

Columns and labels:
[1] = Stability constants of La^3+ complexes by pH potentiometry; assay type: physicochemical; details: for pLa: −log[La^3+]free for [L] = 10 μM and [La^3+] = 1 μM at pH 7.4 and 25 °C; for log K LaL ^La: 1:2 L:La^3+ complex; for log K LaL ^La / log K La2L ^OH / log K La2LOH ^OH / log K LaL / pH at which dissociation of the La^3+ complex occurs (speciation diagrams) / log K LaL ^OH: I = 0.15 M NaCl, 25 °C; for pH at which dissociation of the La^3+ complex occurs (speciation diagrams): cLa3+ = cLig = 10^–3 M; for log K LaL ^OH: hydroxo-complex; for amount of La^3+ not complexed at the beginning of the titration: pH 1.7
Protocol: The stability constants of the La^3+ complexes were determined using pH potentiometry (I = 0.15 NaCl). A significant amount of the metal ion is not complexed by the TPADAC^4– ligand at the beginning of the titration at pH 1.7 (∼20%), which allows for stability constant determination using potentiometry. In the case of TPAEN^4– the amount of free La^3+ was small (∼4%), but the stability constants could be determined by fitting the titration data using both 1:1 and 1:2 (TPAEN^4–:La^3+) stoichiometries (Figure S1, Supporting Information). The TPADAC^4– ligand also forms complexes with 1:1 and 1:2 stoichiometries (Figure S2, Supporting Information).
The thermodynamic stability of the complexes at physiologically relevant pH was assessed by calculating pLa values, defined as −log[La^3+]free for [L] = 10 μM and [La^3+] = 1 μM at pH 7.4 and 25 °C following the recommendation of Raymond. This is a result of the high stability constants (log K LaL) that characterize the formation of these complexes, as well as the relatively low basicity of these ligands. Indeed, cyclohexyl derivatives TPADAC^4– and CHXOCTAPA^4– display considerably higher basicity than the ethyl analogues, as indicated by the Σ log K i ^H (i = 1–5) values shown in Table . Similarly, DTPA and DO3A derivatives are characterized by rather high basicities, which results in relatively low pLa values.
(§1) The pH-potentiometric titrations were carried out with a Methrohm 785 DMP titrator using a Metrohm-6.0233.100 combined electrode. The titrated solutions (5.000 mL) were thermostated at 25 °C and stirred and kept under inert gas atmosphere (N2) to avoid the effect of CO2. The pH-calibration of the electrode was performed using KH-phthalate (pH = 4.005) and borax (pH = 9.177) buffers. The concentrations of the ligand stock solutions were determined by pH-potentiometric titration. The protonation constants of the TPAEN^4– (in the pH range of 2.19–12.00 a total of 213 data pairs by titrating a 2.72 mM a ligand solution) and TPADAC^4– (in the pH range of 1.88–11.85 a total of 208 data pairs by titrating a 2.32 mM ligand solution), the stability and protonation constants of the complexes formed with La^3+ and the formation constants of their dinuclear complexes were determined by pH-potentiometric titration. The metal-to-ligand concentration ratios were 1:1 and 2:1. For the 1:1 ratio a total of 240 data pairs were recorded for a H4TPAEN concentration of 2.29 mM in the pH range of 1.77–11.86, while a total of 222 data pairs were collected in the pH range 1.72–11.85 for a 2.72 mM solution of H4TPADAC. For the 2:1 ratio we collected 259 data pairs for a 2.31 mM solution of H4TPAEN in the pH range of 1.73–11.82, and 259 data pairs for a 2.71 mM concentration of H4TPADAC in the pH range of 1.70–11.85. The calculation of [H^+] from the measured pH values was performed with the use of the method proposed by Irving et al. by titrating a 0.01 M HCl solution (I = 0.15 M NaCl) with a standardized NaOH solution. The differences between the measured and calculated pH values were used to obtain the [H^+] concentrations from the pH-data obtained in the titrations. The ionic product of water was determined from the same experiment in the pH range 11.25–11.85. The protonation and stability constants were calculated from the titration data with the PSEQUAD program. The quality of the fits was assessed with the fitting parameter (FP) calculated by PSEQUAD, which is defined as 2 FP=∑i=1n(Vi,calc−Vi,meas)^2/n−k

[2] = cited from earlier work
[3] = literature value, cited from earlier work
[4] = Ligand protonation constants by pH-potentiometric titration; assay type: physicochemical; details: sum of literature protonation constants of related ligands
[5] = as above; assay type: physicochemical; details: I = 0.15 M NaCl, 25 °C; for Σ log K i ^H (i = 1–5): sum of the constants measured here
Protocol: Ligand protonation constants were determined in 0.15 M NaCl using potentiometric titrations (Figures S1–S2, Supporting Information). The results are compared with those reported previously for OCTAPA^4– and CHXOCTAPA^4– in Table , while the speciation diagrams are shown in Figure S3 (Supporting Information). The first two protonation constants of these ligands, characterized by log K 1 ^H and log K 2 ^H, correspond to the protonation of amine groups, while the remaining protonation constants are ascribed to the carboxylate groups of picolinate and acetate moieties. ,
as §1

[6] = Dissociation kinetics: transmetalation of La^3+ complexes with Cu^2+ as scavenger (UV-vis); assay type: physicochemical; details: for k 3 ^Cu: Cu^2+-assisted pathway; for k 3 ^Cu / k 6 ^Cu / k 2 / K Cu / k 1: 25 °C, 0.15 M NaCl; for k obs for [Cu^2+] = 1 nM / k obs for [Cu^2+] = 1 μM: calculated at pH 7.4; for k 6 ^Cu: dinuclear hydroxo-complex pathway; for k 2: diprotonated pathway; for K Cu: formation of ternary LaLCu complex; for k 1: proton-assisted dissociation of La^3+ complex
Source text: The inertness of metal complexes for radiopharmaceutical applications is important to ensure that the radioisotope is not released in vivo off-target. Furthermore, the detailed study of the dissociation mechanism of the complexes provides useful information for ligand design. Thus, we performed a detailed investigation of the dissociation kinetics of the [La(TPAEN)]^− and [La(TPADAC)]^− complexes using Cu^2+ as a scavenger. The reactions were studied spectrophotometrically in the approximate proton concentration range 1.1 × 10^–5–1.6 × 10^–2 M, which corresponds to a pH range of about 1.8–5.0. A large excess of Cu^2+ was used to ensure pseudo-first order conditions.
The latter may proceed through the formation of mono- or diprotonated intermediates, with associated rate constants k 1 and k 2, respectively. […] Thus, we analyzed the kinetic data using the following expression: 1 kobs=k0+k1[H^+]+k2[H^+]^2+k3[Cu^2+]+k6[Cu^2+]Kw/[H^+]/1+KCu[Cu^2+] Here, k 1, k 2, k 3 ^Cu and k 6 ^Cu are the rate constants defined above, k 0 is the rate constant characterizing the spontaneous dissociation mechanism, K w is the ionic product of water (fixed at pK w = 13.72) and K Cu is the equilibrium constant for the formation of the ternary complex (K Cu= [LaLCu]/[Cu^2+][LaL]).
The rates of the metal exchange reactions of the [La(TPAEN)]^− and [La(TPADAC)]^− complexes with Cu(II) were studied by using UV–vis spectrophotometry following the formation of corresponding Cu(II) complexes. The metal exchange reactions of [La(TPAEN)]^− and [La(TPADAC)]^− were examined by conventional spectrophotometric methods tracking the changes in absorption at 305 nm within the pH range of 1.84 to 4.94 (for [La(TPAEN)]^−). The concentration of the complexes was 0.252 mM, while the Cu(II) ion was applied in high excess (12 to 42 times) to ensure pseudo-first-order conditions. The temperature was maintained at 25 °C, and the ionic strength of the solutions was kept constant at 0.15 M NaCl. Dimethylpiperazine (DMP, 50 mM) buffer was used to maintain the pH constant (log K 2 ^H = 4.18) in the pH range of 3.40 to 4.89 (for [La(TPADAC)]^−). At lower pH, the data were supplemented by following the reactions in the range pH of 2.57 to 3.23 using chloroacetic acid (log K 2 ^H = 2.87) at the same concentration. The pseudo-first-order rate constants (k obs) were calculated by fitting the absorbance vs time data to eq : 3 At=(A0−Ae)e^−kobst+Ae where A t , A 0 and A e are the absorbances recorded at time t, at the start of the reaction and upon reaching equilibrium, respectively. The fittings were performed with the computer program Micromath Scientist, version 2.0 (Salt Lake City, UT) by using a standard least-squares procedure.

pLa ([1]; from literature constants): 15.6
SMILES: O=C(O)c1cccc(CN2CCOCCOCCN(Cc3cccc(C(=O)O)n3)CCOCCOCC2)n1 [MACROPA^2–, N,N’-bis[(6-carboxy-2-pyridil)methyl]-4,13-diaza-18-crown-6]
log K LaL ([2]; 0.1 M KCl, ref footnote d): 14.99
log K LaL ^H ([2]; 0.1 M KCl, ref footnote d): 2.28 ^d
log K LaL ([2]; 0.1 M NaCl, ref footnote e): 13.9

SMILES: O=C(O)CN(Cc1cccc(C(=O)O)n1)[C@@H]1CCCC[C@@H]1N(CC(=O)O)Cc1cccc(C(=O)O)n1 [CHXOCTAPA^4–, 6,6′-((((1R,2S)-cyclohexane-1,2-diyl)bis((carboxymethyl)azanediyl))bis(methylene))dipicolinic acid]
pLa ([1]; from literature constants): 16.6
log K 1 ^H ([3]; ref footnote c): 9.52
log K 2 ^H ([3]; ref footnote c): 5.51
log K 3 ^H ([3]; ref footnote c): 3.99
log K 4 ^H ([3]; ref footnote c): 3.43
log K 5 ^H ([3]; ref footnote c): 1.59
log K 6 ^H ([3]; ref footnote c): 0.61
log K 1 ^H ([3]; ref footnote d): 9.23
log K 2 ^H ([3]; ref footnote d): 5.40
log K 3 ^H ([3]; ref footnote d): 3.94
log K 4 ^H ([3]; ref footnote d): 2.24
log K 5 ^H ([3]; ref footnote d): 1.82
log K 6 ^H ([3]; ref footnote d): 1.91
log K LaL ([2]; 0.15 M NaCl, ref footnote b): 17.82
log K LaL ^H ([2]; 0.15 M NaCl, ref footnote b): 2.00
log K LaL ^OH ([2]; 0.15 M NaCl, ref footnote b): 12.75
Σ log K i ^H (i = 1–5) [4]: 24.04

pLa ([1]; from literature constants): 16.6
SMILES: O=C(O)CN1CCN(CC(=O)O)CCN(Cc2cccc(C(=O)O)n2)CCN(CC(=O)O)CC1 [DO3Apic^4–, 2,2′,2″-(10-((6-carboxypyridin-2-yl)methyl)-1,4,7,10-tetraazacyclododecane-1,4,7-triyl)triacetic acid]
log K LaL ([2]; 0.1 M KCl, ref footnote f): 21.17
log K LaL ^H ([2]; 0.1 M KCl, ref footnote f): 2.55

log K LaL ^La [1]: 2.31(13)
log K La2L ^OH [1]: 6.80(10)
log K La2LOH ^OH [1]: 9.57(10)
log K LaL [1]: 19.16(8)
pH at which dissociation of the La^3+ complex occurs (speciation diagrams) [1]: < 2.5
log K LaL ^OH [1]: 12.62(9)
amount of La^3+ not complexed at the beginning of the titration [1]: ~4%
pLa ([1]; from constants measured here): 19.5
log K 1 ^H [5]: 7.87(1)
log K 2 ^H [5]: 5.14(1)
log K 3 ^H [5]: 3.89(1)
log K 4 ^H [5]: 3.28(1)
log K 5 ^H [5]: 2.55(1)
log K 6 ^H [5]: 0.89(8)
Σ log K i ^H (i = 1–5) [5]: 22.73
K Cu [6]: 42.0 ± 4.5 M^–1
SMILES: O=C(O)c1cccc(CN(CCN(Cc2cccc(C(=O)O)n2)Cc2cccc(C(=O)O)n2)Cc2cccc(C(=O)O)n2)n1 [TPAEN^4–, N,N,N′N′-tetrakis[(6-carboxypyridin-2-yl)methyl]-ethylenediamine]
k 3 ^Cu [6]: 0.74 ± 0.05 M^–1 s^–1
k obs for [Cu^2+] = 1 nM [6]: 4.34 × 10^–7 s^–1
k obs for [Cu^2+] = 1 μM [6]: 3.45 × 10^–4 s^–1
k 6 ^Cu [6]: (7.2 ± 0.5)×10^8 M^–2 s^–1
k 2 [6]: 110.93 ± 10.42 M^–2 s^–1
k 1 [6]: 2.24 ± 0.13 M^–1 s^–1

Σ log K i ^H (i = 1–5) [4]: 21.27
SMILES: O=C(O)CN(CCN(CC(=O)O)CC(=O)O)CC(=O)O [EDTA^4–, ethylenediamine-N,N,N′,N′-tetraacetic acid]
log K 1 ^H ([3]; ref footnote f): 9.17
log K 2 ^H ([3]; ref footnote f): 5.99
log K 3 ^H ([3]; ref footnote f): 2.73
log K 4 ^H ([3]; ref footnote f): 2.01
log K 5 ^H ([3]; ref footnote f): 1.38

SMILES: O=C(O)CN(CC(=O)O)[C@@H]1CCCC[C@H]1N(CC(=O)O)CC(=O)O (relative stereo) [CDTA^4–, 2,2′,2″,2‴-((trans-cyclohexane-1,2-diyl)bis(azanetriyl))tetraacetic acid]
log K 1 ^H ([3]; ref footnote f): 9.36
log K 2 ^H ([3]; ref footnote f): 5.95
log K 3 ^H ([3]; ref footnote f): 3.62
log K 4 ^H ([3]; ref footnote f): 2.57
log K 5 ^H ([3]; ref footnote f): 1.49
Σ log K i ^H (i = 1–5) [4]: 22.99

log K LaL ^La [1]: 2.85(1)
log K La2L ^OH [1]: 6.99(4)
log K La2LOH ^OH [1]: 9.40(4)
log K LaL [1]: 19.55(1)
pH at which dissociation of the La^3+ complex occurs (speciation diagrams) [1]: < 3.0
log K LaL ^OH [1]: 12.06(1)
amount of La^3+ not complexed at the beginning of the titration [1]: ~20%
pLa ([1]; from constants measured here): 17.1
log K 1 ^H [5]: 10.79(1)
log K 2 ^H [5]: 4.95(1)
log K 3 ^H [5]: 4.06(1)
log K 4 ^H [5]: 3.46(1)
log K 5 ^H [5]: 2.94(1)
log K 6 ^H [5]: 0.67(6)
Σ log K i ^H (i = 1–5) [5]: 26.20
K Cu [6]: 74.3 ± 30.2 M^–1
SMILES: O=C(O)c1cccc(CN(Cc2cccc(C(=O)O)n2)[C@@H]2CCCC[C@H]2N(Cc2cccc(C(=O)O)n2)Cc2cccc(C(=O)O)n2)n1 [TPADAC^4–]
k 3 ^Cu [6]: (7.8 ± 2.2)×10^–3 M^–1 s^–1
k obs for [Cu^2+] = 1 nM [6]: 1.123 × 10^–8 s^–1
k obs for [Cu^2+] = 1 μM [6]: 7.381 × 10^–6 s^–1
k 6 ^Cu [6]: (1.5 ± 0.3)×10^7 M^–2 s^–1
k 2 [6]: 232.3 ± 36.8 M^–2 s^–1
k 1 [6]: 0.097 ± 0.036 M^–1 s^–1
